# Test results reported in the kinase profiling compilation of Christmann-Franck et al. (2016).
# Tests used:
# PLK2 (human) = PLK2 (human) (UniProt Q9NYY3); assay: IMAP-FP
# ABL1 (human) = ABL1 (human) (UniProt P00519); assay: Caliper, Mobility shift assay off-chip
# EGFR (human) = EGFR (human) (UniProt P00533); assay: Caliper, Mobility shift assay off-chip
# LCK (human) = LCK (human) (UniProt P06239); assay: Caliper, Mobility shift assay off-chip
# Chain of LCK (human) (P06239 whole entry, looked up): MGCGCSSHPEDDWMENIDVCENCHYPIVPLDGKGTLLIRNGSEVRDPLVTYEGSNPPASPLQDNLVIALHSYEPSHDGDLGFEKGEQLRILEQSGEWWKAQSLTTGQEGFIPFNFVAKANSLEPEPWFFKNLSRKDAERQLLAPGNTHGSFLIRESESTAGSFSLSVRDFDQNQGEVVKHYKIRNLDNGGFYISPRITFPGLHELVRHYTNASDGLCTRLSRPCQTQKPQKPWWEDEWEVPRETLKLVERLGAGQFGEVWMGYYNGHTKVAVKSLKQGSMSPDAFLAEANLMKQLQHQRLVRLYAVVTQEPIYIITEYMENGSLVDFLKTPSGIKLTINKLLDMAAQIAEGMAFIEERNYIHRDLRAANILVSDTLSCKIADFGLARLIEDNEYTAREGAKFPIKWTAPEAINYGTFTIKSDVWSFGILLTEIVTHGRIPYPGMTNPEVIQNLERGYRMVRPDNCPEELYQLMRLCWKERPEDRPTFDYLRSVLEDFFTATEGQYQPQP
# Chain of PLK2 (human) (Q9NYY3 whole entry, looked up): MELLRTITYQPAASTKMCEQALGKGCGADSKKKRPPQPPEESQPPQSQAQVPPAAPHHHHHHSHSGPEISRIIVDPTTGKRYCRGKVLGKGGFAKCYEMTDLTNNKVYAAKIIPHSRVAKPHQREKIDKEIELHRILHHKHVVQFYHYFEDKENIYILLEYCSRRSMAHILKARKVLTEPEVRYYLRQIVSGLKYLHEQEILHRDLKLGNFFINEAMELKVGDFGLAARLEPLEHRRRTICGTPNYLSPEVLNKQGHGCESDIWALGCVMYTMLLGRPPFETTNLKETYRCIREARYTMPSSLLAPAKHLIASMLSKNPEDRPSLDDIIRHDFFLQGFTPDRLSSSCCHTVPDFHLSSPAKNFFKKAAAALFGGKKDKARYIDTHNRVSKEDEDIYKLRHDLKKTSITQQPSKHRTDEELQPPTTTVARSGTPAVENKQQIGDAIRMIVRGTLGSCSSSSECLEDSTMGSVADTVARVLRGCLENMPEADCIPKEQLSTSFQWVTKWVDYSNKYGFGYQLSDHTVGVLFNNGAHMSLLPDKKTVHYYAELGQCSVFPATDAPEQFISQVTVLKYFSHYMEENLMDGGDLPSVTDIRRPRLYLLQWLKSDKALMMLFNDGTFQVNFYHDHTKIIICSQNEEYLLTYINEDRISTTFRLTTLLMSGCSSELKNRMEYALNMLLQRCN
# Chain of EGFR (human) (P00533 whole entry, looked up): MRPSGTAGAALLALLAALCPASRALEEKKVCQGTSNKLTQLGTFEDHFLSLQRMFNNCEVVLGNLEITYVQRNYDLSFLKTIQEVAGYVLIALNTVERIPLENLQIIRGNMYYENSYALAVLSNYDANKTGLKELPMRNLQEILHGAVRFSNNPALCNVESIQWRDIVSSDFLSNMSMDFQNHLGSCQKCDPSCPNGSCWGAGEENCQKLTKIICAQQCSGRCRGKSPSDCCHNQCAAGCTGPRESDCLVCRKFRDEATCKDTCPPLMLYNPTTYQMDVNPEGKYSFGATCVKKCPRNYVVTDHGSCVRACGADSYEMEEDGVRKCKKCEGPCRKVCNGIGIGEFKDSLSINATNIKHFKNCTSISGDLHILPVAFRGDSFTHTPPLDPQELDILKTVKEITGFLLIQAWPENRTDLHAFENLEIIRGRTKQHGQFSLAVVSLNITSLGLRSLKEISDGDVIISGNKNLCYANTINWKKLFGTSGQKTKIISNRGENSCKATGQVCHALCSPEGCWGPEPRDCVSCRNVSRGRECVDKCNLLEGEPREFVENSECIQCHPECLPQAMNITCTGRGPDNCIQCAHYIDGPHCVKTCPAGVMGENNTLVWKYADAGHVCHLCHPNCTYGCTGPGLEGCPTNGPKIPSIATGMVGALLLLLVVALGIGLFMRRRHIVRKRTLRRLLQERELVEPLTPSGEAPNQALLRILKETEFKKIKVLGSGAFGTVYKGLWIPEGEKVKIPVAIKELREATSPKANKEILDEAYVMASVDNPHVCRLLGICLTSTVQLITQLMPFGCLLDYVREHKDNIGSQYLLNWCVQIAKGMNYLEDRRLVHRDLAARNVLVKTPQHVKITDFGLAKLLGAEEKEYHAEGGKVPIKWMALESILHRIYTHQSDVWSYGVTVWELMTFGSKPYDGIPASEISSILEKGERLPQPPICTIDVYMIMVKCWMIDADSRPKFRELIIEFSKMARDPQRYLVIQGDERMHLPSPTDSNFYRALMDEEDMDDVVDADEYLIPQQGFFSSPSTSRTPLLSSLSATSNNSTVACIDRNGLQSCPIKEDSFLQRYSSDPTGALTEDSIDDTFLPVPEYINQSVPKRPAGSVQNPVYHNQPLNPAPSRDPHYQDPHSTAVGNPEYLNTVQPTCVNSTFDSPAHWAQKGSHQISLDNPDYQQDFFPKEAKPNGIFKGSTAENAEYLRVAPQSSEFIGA
# Chain of ABL1 (human) (P00519 whole entry, looked up): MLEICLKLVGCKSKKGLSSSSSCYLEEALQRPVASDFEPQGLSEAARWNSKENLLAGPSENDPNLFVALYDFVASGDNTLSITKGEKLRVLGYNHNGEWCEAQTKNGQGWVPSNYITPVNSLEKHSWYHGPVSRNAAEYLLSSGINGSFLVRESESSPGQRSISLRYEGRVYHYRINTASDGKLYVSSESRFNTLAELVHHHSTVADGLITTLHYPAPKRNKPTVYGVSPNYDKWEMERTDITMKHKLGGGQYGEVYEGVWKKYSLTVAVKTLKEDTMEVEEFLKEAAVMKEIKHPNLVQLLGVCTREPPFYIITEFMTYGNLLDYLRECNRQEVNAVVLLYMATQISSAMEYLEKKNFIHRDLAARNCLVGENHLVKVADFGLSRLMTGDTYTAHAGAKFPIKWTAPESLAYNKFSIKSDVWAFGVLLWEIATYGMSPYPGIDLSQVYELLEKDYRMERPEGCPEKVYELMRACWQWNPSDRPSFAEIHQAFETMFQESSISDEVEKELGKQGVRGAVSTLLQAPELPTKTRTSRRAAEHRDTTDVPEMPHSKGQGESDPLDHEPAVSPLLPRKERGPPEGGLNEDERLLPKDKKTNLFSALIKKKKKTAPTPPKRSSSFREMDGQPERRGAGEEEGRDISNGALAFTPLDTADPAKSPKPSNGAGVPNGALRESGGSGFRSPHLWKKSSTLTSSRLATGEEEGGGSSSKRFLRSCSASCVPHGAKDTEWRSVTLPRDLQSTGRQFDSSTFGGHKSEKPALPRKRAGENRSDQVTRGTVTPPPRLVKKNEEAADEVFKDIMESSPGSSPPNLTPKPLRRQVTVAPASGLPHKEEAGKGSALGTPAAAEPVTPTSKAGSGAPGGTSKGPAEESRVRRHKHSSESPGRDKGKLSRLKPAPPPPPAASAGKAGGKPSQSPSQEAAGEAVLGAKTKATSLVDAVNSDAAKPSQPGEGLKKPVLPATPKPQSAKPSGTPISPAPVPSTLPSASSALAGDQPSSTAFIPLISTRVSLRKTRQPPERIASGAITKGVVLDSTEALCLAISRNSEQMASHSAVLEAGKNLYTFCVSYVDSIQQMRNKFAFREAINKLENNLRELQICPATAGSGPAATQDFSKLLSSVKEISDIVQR
inhibition (PLK2 (human); compound 0.02 µM) [%],inhibition (PLK2 (human); compound 0.2 µM) [%],inhibition (ABL1 (human); compound 0.02 µM) [%],inhibition (ABL1 (human); compound 0.2 µM) [%],inhibition (EGFR (human); compound 0.02 µM) [%],inhibition (EGFR (human); compound 0.2 µM) [%],inhibition (LCK (human); compound 0.02 µM) [%],inhibition (LCK (human); compound 0.2 µM) [%],inhibition (PLK2 (human); compound 0.001 µM) [%],inhibition (PLK2 (human); compound 4.0 µM) [%],SMILES
-0.6,-2.1,,,,,,,,,CNC(=O)c1cc(Oc2ccc(NC(=O)Nc3ccc(Cl)c(C(F)(F)F)c3)cc2)ccn1
-0.9,-1.6,24.1,58.9,30.6,78.4,23,72.7,,,COc1cc2c(Oc3ccc4[nH]c(C)cc4c3F)ncnc2cc1OCCCN1CCCC1
3.9,-0.8,,,,-1.3,7,44.1,,,Cc1ccc(Nc2nccc(N(C)c3ccc4c(C)n(C)nc4c3)n2)cc1S(N)(=O)=O
1.7,,,,,,,,-3,,CNC(=O)c1ccccc1Sc1ccc2c(/C=C/c3ccccn3)n[nH]c2c1
,-4.7,,,,,,,,4.2,CCN(CC)CCNC(=O)c1c(C)[nH]c(/C=C2\C(=O)Nc3ccc(F)cc32)c1C
